Data from patent publication US9907856B2, “Carboxymethylcellulose-peptide conjugates and methods for using the same” (The Regents of the University of California, priority 2013, dated 2018).
Ends that are not written are not given here.

Assays:
[1] = system: Chronic Myocardial Infarction Model; assay: Histology/immunohistochemistry of infarct region (infarct size, angiogenesis, cardiac cells); type: in vivo, Sprague-Dawley rats; settings: rat, 5 weeks post-treatment; for Density of cardiomyocytes within the infarct region / Infarct size: compared to PBS negative control; for Capillary density in the infarct region: CD31 staining; for Capillary density in the infarct region / Arteriole density within the infarct region: mean ± SD; for Infarct size: Masson's trichrome; for Arteriole density within the infarct region: α-smooth muscle actin staining
Procedure: (§1) All surgical procedures were approved by the Committee for Animal Research of the University of California San Francisco (San Francisco, Calif.). Female Sprague-Dawley rats (225-250 g) were anesthetized with isoflurane. The chest was opened by a median sternotomy, and a single stitch of 7-0 Ticron suture (United States Surgical division of Tyco Healthcare, Norwalk, Conn.) was introduced around the left anterior descending (LAD) coronary artery and tightened to occlude for 30 min. before re-perfusing the vessel (Yu et al, J Thorac Cardiovasc Surg. 2009 Jan. 1, 2009; 137(1):180-7; Christman et a, J Am Coll Cardiol. 2004; 44(3):654-60; Christman et al, Tissue Eng. 2004; 10(3-4):403-9; Huang et al, Tissue Eng. 2005; 11(11-12):1860-6; Sievers et al, Magn Reson Med. 1989; 10:172-81; and Yu et al, Biomaterials. 2009; 30(5):751-6; which are hereby incorporated by reference in their entirety). Cardiac monitoring during the LAD occlusion confirmed the presence of myocardial injury as indicated by ST-elevation. The chest was then closed and the animal was allowed to recover for 5 weeks in order to allow for a LV aneurysm to fully develop. Transthoracic echocardiography was performed 5 weeks post-MI and 5 weeks post-treatment as previously described (Yu et al, J Thorac Cardiovasc Surg. 2009 Jan. 1, 2009; 137(1):180-7; and Litwin et al, Circulation. 1994; 89:345-54; which are hereby incorporated by reference in their entirety).
(§2) Five weeks post-MI and prior to treatment, we verified the LV aneurysmal formation and compromised LV function via echocardiography. The rats were randomized into MC:CMC, MC:CMC-RGD, MC:CMC-HepIII, or phosphate-buffered saline (PBS) control groups (N=8-9 rats/group). Using a closed chest echocardiography-guided injection technique (Springer et al, American Journal of Physiology—Heart and Circulatory Physiology. Sep. 1, 2005; 289(3):H1307-H14; which is hereby incorporated by reference in its entirety), 100 μL of polymer or PBS solution was injected into the infracted LV region of each heart, using a 1 mL syringe system and a 25-gauge needle.
Five weeks post-treatment (10 weeks post-MI), the rats were euthanized and their hearts were harvested, rinsed in cold saline, blotted-dry and fresh frozen in Tissue Tek O.C.T. freezing medium (Sakura Finetek, Torrance, Calif.). The hearts were sectioned into 10 μm slices. Sequential slides spanning the LV region were stained with Masson's trichrome stain and were used for morphological assessment of the infarct size as previously described (Christman et al, J Am Coll Cardiol. 2004; 44(3):654-60). Angiogenesis, arteriogenesis, and the number of cardiac cells within the infarct region were examined by immunohistochemical (IHC) staining with mouse monoclonal anti-CD31 (BD Biosciences Pharmingen, San Diego, Calif.) to visualize capillaries, mouse monoclonal anti-α-smooth muscle actin (Sigma, St. Louis, Mo.) to detect arterioles (Virag et al, Am J Pathol. 2003 Dec. 1, 2003; 163(6):2433-40; which is hereby incorporated by reference in its entirety), and mouse monoclonal anti-rat cardiac α-myosin heavy chain (Panorama Research Institute, Mountain View, Calif.) to detect the cardiac cells. The staining assay was performed using mouse-on-rat HRP-polymer (Biocare Medical, Concord, Calif.) on slides that were sequential to the slides stained with trichrome. Capillaries in the infarct region were identified as a single layer of CD31-positive cells with flattened morphology. Vessel density, cardiac cell density, and nuclei density was calculated on the basis of 5 high magnification fields per section that spanned the infarct and averaged among 5 sections for each sample. Arterioles within or bordering the infarct were identified as staining positive for α-smooth muscle actin and as having a visible lumen with a diameter between 10 and 100 μm (Yu et al, J Thorac Cardiovasc Surg. 2009 Jan. 1, 2009; 137(1):180-7; and Christman et a, J Am Coll Cardiol. 2004; 44(3):654-60). […]

[2] = system: Chronic Myocardial Infarction Model; assay: Echocardiography in chronic myocardial infarction model after polymer injection; type: in vivo, Sprague-Dawley rats; settings: rat; for Diastolic volume / MI wall thickness / Systolic volume: 5 weeks post-treatment vs baseline; for Fractional area change (FAC), 5 weeks post-treatment / LV ejection fraction, 5 weeks post-treatment: 100 μL injected into infarcted LV, 5 weeks post-treatment (10 weeks post-MI); for Fractional area change (FAC), 5 weeks post-treatment / LV ejection fraction, 5 weeks post-treatment / Fractional area change (FAC), baseline / LV ejection fraction, baseline: mean ± SD; for Fractional area change (FAC), baseline / LV ejection fraction, baseline: baseline 5 weeks post-MI, before treatment
Procedure: as §1, §2

[3] = Rheology studies of 5:1 MC:CMC polymer blends; type: physicochemical; settings: for Gelling temperature: 5:1 MC:CMC polymer blends, intersection of elastic and viscous modulus plots, mean ± SEM; for Effect of peptide conjugation on viscoelastic properties of the polymer: 5:1 blend, 20-40° C., vs unconjugated polymer
Procedure: Rheology measurements (Advanced Rheometer AR2000, TA Instruments, New Castle, Del.) were done on MC:CMC, MC:CMC-RGD, and MC:CMC-HepIII co-polymers mixed at a 5:1 ratio. The elastic modulus and viscous modulus were determined for temperatures ranging from 20-40° C., with 1° C. increments. The equilibration time was set at 1 min. and the frequency was set at 1 Hz. The gelling temperature was defined as the point of intersection between the plot for the elastic modulus and the plot for the viscous modulus. Measurements were done in triplicate.

Substance	Density of cardiomyocytes within the infarct region [1]	Capillary density in the infarct region [1]	Infarct size [1]	Arteriole density within the infarct region [1]	Diastolic volume [2]	MI wall thickness [2]	Systolic volume [2]	Fractional area change (FAC), 5 weeks post-treatment [2]	LV ejection fraction, 5 weeks post-treatment [2]	Fractional area change (FAC), baseline [2]	LV ejection fraction, baseline [2]	Gelling temperature [3]	Effect of peptide conjugation on viscoelastic properties of the polymer [3]
MC:CMC-HepIII: Methylcellulose blended 5:1 with carboxymethylcellulose conjugated to HepIII peptide GEFYFDLRLKGDKY (SEQ ID NO: 2) (also: conjugated to carboxymethylcellulose, blended with methylcellulose (attachment site not given here))	higher density	424±56 capillaries/mm^2	statistically significant reduction	28±10 arterioles/mm^2	significantly decreased	increase	significantly decreased	45.6±9.63%	43.0±6.25%	36.9±2.60%	36.9±2.18%	26.85 ± 0.6256 °C	decreased stiffness and viscosity
MC:CMC-RGD: Methylcellulose blended 5:1 with carboxymethylcellulose conjugated to RGD peptide GRGDSPASSPISC (SEQ ID NO: 1) (also: conjugated to carboxymethylcellulose, blended with methylcellulose (attachment site not given here))	higher density	472±146 capillaries/mm^2	statistically significant reduction	32±12 arterioles/mm^2	significantly decreased	increase	significantly decreased	44.0±9.26%	42.9±8.29%	36.0±2.44%	34.2±1.91%	26.75 ± 0.4954 °C	did not significantly alter
